Assay results as given in patent publication US20090022714A1, “Combination methods of inhibiting tumor growth with a vascular endothelial growth factor receptor antagonist” (ImClone Systems, Inc., priority 2001, published 2009).

Molecular target: T1, KDR (VEGFR-2) (Homo sapiens, UniProt P35968)
T1 construct: the cDNA for KDR (VEGFR-2) extracellular domain is fused in-frame with the cDNA for human placental AP; made in house; host or cells: stably transfected NIH 3T3 cells, purified from supernatant on anti-AP antibody
Test: BIAcore analysis of p1C11 scFv, c-p1C11 and VEGF
Format: binding
Protocol: The binding kinetics of antibodies to KDR (VEGFR-2) were measured using BIAcore biosensor (Pharmacia Biosensor). […] Sensorgrams were obtained at each concentration and were evaluated using a program, BIA Evaluation 2.0, to determine the rate constants kon and koff. Kd was calculated as the ratio of rate constants koff/kon.

T1 sequence (P35968 20-764 limits assumed): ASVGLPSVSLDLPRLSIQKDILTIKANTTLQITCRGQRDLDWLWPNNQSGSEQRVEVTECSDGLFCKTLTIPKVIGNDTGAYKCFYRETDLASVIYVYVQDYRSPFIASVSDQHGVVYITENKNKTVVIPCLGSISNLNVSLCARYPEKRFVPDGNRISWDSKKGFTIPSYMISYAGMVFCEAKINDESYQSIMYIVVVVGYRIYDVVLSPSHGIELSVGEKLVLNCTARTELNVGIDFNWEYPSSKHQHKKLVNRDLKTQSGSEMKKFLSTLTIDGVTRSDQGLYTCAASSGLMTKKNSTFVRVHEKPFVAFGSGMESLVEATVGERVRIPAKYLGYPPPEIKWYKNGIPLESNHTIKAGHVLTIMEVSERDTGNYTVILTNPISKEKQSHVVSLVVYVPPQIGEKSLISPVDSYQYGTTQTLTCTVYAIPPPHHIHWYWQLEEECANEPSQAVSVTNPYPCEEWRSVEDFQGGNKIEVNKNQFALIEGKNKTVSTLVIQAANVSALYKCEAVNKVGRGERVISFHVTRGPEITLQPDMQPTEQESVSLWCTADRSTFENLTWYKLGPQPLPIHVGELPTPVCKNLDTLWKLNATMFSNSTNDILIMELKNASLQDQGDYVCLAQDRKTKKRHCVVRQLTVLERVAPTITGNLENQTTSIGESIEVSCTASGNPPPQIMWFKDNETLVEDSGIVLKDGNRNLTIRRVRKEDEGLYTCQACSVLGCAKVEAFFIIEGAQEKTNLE

With VEGF [reference compound] as the substance, how does the koff read?
The koff was 1.81 10^−4 s^−1.

And the kon?
Its kon is 1.87 10^5 M^−1s^−1.
